The source made the active and inactive calls.
What was measured:
[1] = biological target: T1, COUP transcription factor 2 (Homo sapiens, UniProt P24468); assay: Luminescence-based cell-based high throughput dose response assay to identify inhibitors of COUP-TFII (NR2F2).; format: functional;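 further: HEK293 cells transiently cotransfected with COUP-TFII expression vector and reporter; luciferase reporter luminescence driven by COUP-TFII from the pX2-168 reporter plasmid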
T1 sequence (P24468 whole entry): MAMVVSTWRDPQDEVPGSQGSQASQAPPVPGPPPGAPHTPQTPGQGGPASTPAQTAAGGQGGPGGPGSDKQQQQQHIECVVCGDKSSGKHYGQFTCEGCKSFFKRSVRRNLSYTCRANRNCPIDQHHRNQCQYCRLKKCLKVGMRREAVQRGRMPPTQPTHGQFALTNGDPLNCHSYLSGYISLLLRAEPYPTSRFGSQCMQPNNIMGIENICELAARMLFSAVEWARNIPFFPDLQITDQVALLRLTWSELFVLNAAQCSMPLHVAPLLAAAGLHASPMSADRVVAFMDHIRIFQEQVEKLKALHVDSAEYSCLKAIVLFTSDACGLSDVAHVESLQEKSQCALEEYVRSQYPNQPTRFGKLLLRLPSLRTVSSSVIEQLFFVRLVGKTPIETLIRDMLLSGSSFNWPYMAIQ

[2] = viability loss in CEM21 cells – cell-based, CellTiter-Glo luminescence, cherry-picked, cytotoxicity control for viral fusion inhibitor project, dose response (AID 652042); format: functional;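 further: potency for signal decrease meaning cytotoxicity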
[3] = microbe, parasite or virus in culture; format: functional; details: Mycobacterium tuberculosis
Fatty acid synthase [4] = biological target: T2, Fatty acid synthase (Homo sapiens, UniProt P49327); assay: inhibition of human FAS-TE enzyme activity – biochemical, kinetic fluorescence intensity, dose response (AID 624326); format: functional;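 further: rate of fluorescence rise from hydrolysis of a fluorogenic O-methyl fluorescein ester substrate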
T2 sequence (P49327 whole entry): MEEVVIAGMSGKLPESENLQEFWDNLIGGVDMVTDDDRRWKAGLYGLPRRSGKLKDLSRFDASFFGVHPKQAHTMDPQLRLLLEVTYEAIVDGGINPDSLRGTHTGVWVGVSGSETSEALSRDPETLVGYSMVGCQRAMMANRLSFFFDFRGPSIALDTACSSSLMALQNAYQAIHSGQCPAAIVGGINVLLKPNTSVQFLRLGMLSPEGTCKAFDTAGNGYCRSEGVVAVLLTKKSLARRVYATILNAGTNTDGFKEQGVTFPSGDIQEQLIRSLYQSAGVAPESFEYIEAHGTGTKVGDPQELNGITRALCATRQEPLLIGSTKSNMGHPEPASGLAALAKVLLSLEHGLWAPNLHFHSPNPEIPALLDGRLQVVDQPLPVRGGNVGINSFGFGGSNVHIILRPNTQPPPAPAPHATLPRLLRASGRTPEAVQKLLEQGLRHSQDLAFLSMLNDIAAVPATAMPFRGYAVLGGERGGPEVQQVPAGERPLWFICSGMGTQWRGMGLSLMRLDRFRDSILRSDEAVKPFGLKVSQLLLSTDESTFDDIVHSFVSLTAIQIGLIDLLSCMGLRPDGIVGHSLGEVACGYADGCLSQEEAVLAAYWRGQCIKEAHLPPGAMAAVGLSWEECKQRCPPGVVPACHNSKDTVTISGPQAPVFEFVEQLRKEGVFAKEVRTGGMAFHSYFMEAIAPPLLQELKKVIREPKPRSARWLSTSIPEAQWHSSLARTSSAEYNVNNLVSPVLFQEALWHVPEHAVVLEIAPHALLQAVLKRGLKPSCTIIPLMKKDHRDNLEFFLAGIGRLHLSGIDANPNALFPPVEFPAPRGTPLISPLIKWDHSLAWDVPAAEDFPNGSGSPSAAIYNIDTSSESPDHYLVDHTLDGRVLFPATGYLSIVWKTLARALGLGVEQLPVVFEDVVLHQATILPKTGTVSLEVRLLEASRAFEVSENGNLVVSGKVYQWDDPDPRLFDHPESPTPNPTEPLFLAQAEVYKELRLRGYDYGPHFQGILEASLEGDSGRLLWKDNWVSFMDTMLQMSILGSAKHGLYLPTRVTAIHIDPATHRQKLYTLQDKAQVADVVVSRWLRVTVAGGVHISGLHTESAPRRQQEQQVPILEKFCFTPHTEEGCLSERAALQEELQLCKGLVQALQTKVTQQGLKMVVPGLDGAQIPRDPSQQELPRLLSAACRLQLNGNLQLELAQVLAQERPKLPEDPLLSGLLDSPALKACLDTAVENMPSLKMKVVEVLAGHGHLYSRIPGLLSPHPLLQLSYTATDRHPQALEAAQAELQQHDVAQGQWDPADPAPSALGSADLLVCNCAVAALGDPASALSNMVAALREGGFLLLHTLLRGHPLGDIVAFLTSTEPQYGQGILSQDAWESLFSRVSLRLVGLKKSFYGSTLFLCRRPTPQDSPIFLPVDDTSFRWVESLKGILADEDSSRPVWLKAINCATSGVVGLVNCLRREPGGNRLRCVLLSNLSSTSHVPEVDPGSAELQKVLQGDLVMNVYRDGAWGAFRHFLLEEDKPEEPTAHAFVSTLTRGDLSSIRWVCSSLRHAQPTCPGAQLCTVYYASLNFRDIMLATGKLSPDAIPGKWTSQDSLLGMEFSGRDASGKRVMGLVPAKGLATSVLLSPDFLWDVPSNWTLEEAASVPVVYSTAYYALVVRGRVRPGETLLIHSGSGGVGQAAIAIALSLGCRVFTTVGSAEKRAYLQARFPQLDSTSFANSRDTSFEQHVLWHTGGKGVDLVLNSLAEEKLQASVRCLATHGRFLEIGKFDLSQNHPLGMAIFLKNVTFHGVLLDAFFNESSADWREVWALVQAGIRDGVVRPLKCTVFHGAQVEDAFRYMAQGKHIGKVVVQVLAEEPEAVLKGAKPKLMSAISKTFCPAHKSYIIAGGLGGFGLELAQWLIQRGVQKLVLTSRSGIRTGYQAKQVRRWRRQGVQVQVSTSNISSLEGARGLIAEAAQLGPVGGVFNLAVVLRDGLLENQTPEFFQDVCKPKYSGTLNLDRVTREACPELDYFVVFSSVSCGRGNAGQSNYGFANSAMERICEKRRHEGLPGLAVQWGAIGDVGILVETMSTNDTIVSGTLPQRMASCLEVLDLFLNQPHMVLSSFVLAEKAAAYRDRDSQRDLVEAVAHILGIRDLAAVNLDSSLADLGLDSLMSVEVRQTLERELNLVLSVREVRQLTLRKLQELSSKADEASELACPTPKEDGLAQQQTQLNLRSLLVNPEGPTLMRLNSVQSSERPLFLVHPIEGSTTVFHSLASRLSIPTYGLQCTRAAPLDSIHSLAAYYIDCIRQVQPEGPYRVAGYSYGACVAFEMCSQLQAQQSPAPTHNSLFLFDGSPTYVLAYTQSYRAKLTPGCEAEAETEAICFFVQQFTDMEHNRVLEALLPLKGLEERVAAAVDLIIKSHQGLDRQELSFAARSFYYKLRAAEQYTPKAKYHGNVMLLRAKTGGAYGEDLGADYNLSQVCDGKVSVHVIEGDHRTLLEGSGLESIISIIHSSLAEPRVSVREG

[5] = HEK-293T viability loss after treatment – luminescence, T-cell screen hits, cytotoxicity control for TCR NF-kB inhibitor project, dose response (AID 489026); format: functional, cell-based;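 further: cells exposed to compound about 14 hours before the viability readout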
Fatty acid synthase [6] = biological target: T2, Fatty acid synthase; assay: inhibition of human FAS-TE enzyme activity – biochemical, endpoint fluorescence intensity, uHTS hits, dose response (AID 624327); format: functional;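 further: fluorescence from hydrolysis of an O-methyl fluorescein acyl ester substrate by the enzyme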
[7] = HIV-1 AD8 envelope cell-cell fusion blockers – cherry-pick, dose response (AID 652062); format: functional, cell-based;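 further: luciferase signal from cell-cell fusion driven by HIV-1 clade B AD8 Env; potency is for inhibitors of fusion seen as a drop in luminescence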
Caspase-6 = biological target: T3, Caspase-6 (Homo sapiens, UniProt P55212); assay: inhibition of CASP6 peptide cleavage – biochemical, VEID-R110 fluorescence, cherry-pick, dose response (AID 720632)
T3 sequence (P55212 whole entry): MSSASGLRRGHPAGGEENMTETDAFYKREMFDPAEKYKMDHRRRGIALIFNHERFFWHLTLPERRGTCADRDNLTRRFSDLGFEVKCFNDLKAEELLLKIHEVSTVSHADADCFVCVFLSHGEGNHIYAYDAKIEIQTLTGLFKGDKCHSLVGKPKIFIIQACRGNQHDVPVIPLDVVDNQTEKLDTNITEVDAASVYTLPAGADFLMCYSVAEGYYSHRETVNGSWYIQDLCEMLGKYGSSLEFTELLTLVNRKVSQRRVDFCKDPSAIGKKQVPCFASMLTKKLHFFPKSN

[8] = biological target: T4, Carboxy-terminal domain RNA polymerase II polypeptide A small phosphatase 1 (Homo sapiens, UniProt Q9GZU7); assay: CTDSP1 inhibitors, concentration-response, biochemical, absorbance readout, ultra-high-throughput screen actives (AID 540297); format: functional
T4 sequence (Q9GZU7 whole entry): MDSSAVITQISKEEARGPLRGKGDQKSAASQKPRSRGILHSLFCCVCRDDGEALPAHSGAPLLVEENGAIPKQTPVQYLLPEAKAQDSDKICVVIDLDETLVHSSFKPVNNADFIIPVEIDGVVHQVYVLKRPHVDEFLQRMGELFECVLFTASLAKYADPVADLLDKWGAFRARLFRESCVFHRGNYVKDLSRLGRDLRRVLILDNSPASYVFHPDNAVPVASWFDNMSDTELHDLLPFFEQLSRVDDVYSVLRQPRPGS

[9] = biological target: T5, Histone-lysine N-methyltransferase NSD2 (Homo sapiens, UniProt O96028); format: biochemical
T5 sequence (O96028 whole entry): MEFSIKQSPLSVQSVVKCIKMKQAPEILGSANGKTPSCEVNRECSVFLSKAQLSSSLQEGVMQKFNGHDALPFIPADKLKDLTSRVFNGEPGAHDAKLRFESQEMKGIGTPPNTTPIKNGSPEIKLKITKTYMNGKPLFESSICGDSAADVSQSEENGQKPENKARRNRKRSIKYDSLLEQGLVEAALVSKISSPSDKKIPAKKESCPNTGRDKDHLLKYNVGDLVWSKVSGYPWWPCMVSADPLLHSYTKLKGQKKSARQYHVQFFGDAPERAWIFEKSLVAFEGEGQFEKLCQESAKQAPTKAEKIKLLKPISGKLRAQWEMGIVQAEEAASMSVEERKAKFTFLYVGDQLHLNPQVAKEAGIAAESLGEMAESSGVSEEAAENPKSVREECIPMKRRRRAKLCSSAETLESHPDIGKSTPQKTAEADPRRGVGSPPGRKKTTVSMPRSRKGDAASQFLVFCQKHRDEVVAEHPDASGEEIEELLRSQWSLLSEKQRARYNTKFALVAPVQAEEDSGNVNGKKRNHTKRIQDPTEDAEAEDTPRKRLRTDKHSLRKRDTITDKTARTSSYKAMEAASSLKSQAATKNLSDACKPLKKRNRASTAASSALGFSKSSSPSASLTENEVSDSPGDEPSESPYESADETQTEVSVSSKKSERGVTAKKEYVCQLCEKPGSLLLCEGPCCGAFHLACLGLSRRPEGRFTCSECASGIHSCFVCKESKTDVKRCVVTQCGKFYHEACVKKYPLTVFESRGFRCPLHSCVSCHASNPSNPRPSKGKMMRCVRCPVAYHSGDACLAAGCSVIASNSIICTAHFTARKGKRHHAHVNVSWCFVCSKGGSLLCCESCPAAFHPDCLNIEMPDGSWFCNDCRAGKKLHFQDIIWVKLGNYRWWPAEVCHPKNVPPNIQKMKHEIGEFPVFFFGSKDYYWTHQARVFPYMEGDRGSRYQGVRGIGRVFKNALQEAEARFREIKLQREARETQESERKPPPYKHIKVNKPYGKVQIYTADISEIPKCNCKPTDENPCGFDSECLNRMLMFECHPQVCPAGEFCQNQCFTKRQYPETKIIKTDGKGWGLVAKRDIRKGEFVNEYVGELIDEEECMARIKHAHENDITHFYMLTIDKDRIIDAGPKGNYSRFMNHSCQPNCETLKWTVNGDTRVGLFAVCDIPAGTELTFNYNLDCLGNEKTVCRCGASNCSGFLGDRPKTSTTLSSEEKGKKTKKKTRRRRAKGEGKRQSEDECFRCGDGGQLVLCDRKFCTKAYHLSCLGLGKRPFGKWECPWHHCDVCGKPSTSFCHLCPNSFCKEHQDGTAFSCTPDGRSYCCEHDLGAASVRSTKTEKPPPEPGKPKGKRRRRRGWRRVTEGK

[10] = biological target: FAD-linked sulfhydryl oxidase ALR (Homo sapiens, UniProt P55789); assay: ALR-catalysed DTT oxidation blockers – biochemical, H2O2 detection, luminescence, cherry-pick, dose response (AID 493248)
Sequence of FAD-linked sulfhydryl oxidase ALR (P55789 whole entry): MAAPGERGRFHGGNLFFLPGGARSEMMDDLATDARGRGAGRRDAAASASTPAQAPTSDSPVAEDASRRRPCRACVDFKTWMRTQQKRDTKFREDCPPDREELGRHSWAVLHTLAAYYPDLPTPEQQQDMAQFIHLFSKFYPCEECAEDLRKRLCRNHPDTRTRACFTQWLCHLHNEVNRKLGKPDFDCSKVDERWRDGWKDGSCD

fMet-Leu-Phe receptor = biological target: T6, fMet-Leu-Phe receptor (Homo sapiens, UniProt P21462); assay: formyl peptide receptor binders – dose response (AID 519); format: functional
T6 sequence (P21462 whole entry): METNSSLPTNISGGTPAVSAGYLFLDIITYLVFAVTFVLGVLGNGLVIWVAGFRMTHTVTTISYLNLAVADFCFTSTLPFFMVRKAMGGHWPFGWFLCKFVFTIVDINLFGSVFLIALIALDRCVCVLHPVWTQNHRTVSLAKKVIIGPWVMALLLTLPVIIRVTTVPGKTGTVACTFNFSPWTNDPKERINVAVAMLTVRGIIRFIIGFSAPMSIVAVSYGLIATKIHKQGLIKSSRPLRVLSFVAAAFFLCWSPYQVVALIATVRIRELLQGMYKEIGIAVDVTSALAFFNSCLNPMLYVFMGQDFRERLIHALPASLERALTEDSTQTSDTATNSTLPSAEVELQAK

In the case of `CCOC(=O)N1CCC(NC(=O)C2CCCN(Cc3nc(-c4ccc(CC)cc4)oc3C)C2)CC1` (centres undefined), the IC50 [1] is reported as 9.26 µM (active).
In the case of `CC1Cc2cc(-c3csc(NC(=O)Cc4cccs4)n3)ccc2N1S(C)(=O)=O` (centres undefined), the AC50 [2] is reported as 54.5 µM (active), the CC50 [3] is reported as > 40 µM (active) and the IC50 (Fatty acid synthase [4]) is reported as 7.01 µM (active). For the same molecule, the IC50 [5] was 38 µM (inactive), the IC50 (Fatty acid synthase [6]) was 14.1 µM (active) and the IC50 [1] was 3.11 µM (active). For the same molecule, the AC50 [7] was 5.65 µM (active).
For `CCOc1cc(C(=O)O)ccc1OCCOc1ccccc1`, the AC50 (Caspase-6) was 34 µM (active).
For `C=CCc1cc(/C=C/c2nc(O)c([N+](=O)[O-])c(O)n2)cc(OC)c1O`, the IC50 [8] was 19.3 µM (active), the AC50 [9] was > 20 µM (inactive) and the AC50 (Caspase-6) was 9.31 µM (active). The AC50 [10] was 0.469 µM (active).
In the case of `O=C1Nc2ccccc2/C1=C1/SC(=S)N(CC2CCCO2)C1=O` (centres undefined), the Ki (fMet-Leu-Phe receptor) is reported as > 66.7 µM (inactive).
